# Test results taken from patent US20100298141A1, “SUBSTITUTED PYRIDINE N-OXIDE HERBICIDES” (E. I. DU PONT DE NEMOURS AND COMPANY, priority 2007, published 2010).
# Experiments:
# [1] = test system: wild oat; test: Test D preemergence test; format: in vivo, Avena fatua; settings: scale 0 to 100
# In short: (§1)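 Test chemicals, in a non-phytotoxic solvent blend with surfactant, were applied preemergence to planted seeds; where no result was obtained, a dash is shown.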
# [2] = test system: broadleaf signalgrass; test: Test G preemergence test; format: in vivo, Brachiaria platyphylla; settings: scale 0 to 100
# [3] = test system: downy bromegrass; test: Test D preemergence test; format: in vivo, Bromus tectorum; settings: scale 0 to 100
# In short: as §1
# [4] = test system: winter barley; test: Test D preemergence test; format: in vivo, Hordeum vulgare
# In short: as §1
# [5] = test system: eastern black nightshade; test: Test G preemergence test; format: in vivo, Solanum ptycanthum; settings: scale 0 to 100
# [6] = test system: cotton; test: Test G preemergence test; format: in vivo, Gossypium hirsutum; settings: scale 0 to 100
# [7] = test system: winter wheat; test: Test D preemergence test; format: in vivo, Triticum aestivum; settings: scale 0 to 100
# In short: as §1
# [8] = test system: spring wheat; test: Test D preemergence test; format: in vivo, Triticum aestivum; settings: scale 0 to 100
# In short: as §1
# [9] = test system: itchgrass; test: Test G preemergence test; format: in vivo, Rottboellia cochinchinensis; settings: scale 0 to 100
# [10] = test system: Italian ryegrass; test: Test D preemergence test; format: in vivo, Lolium multiflorum; settings: scale 0 to 100
# In short: as §1
# [11] = test system: millet foxtail; test: Test G preemergence test; format: in vivo, Setaria italica; settings: scale 0 to 100
# [12] = test system: large crabgrass; test: Test G preemergence test; format: in vivo, Digitaria sanguinalis; settings: scale 0 to 100
# [13] = test system: millet; test: Test G preemergence test; format: in vivo, Panicum miliaceum; settings: scale 0 to 100
# [14] = test system: annual bluegrass; test: Test D preemergence test; format: in vivo, Poa annua; settings: scale 0 to 100
# In short: as §1
# [15] = test system: woolly cupgrass; test: Test G preemergence test; format: in vivo, Eriochloa villosa; settings: scale 0 to 100
# [16] = test system: goosegrass; test: Test G preemergence test; format: in vivo, Eleusine indica; settings: scale 0 to 100
# [17] = test system: yellow nutsedge; test: Test G preemergence test; format: in vivo, Cyperus esculentus; settings: scale 0 to 100
# [18] = test system: rice; test: Test B flooded paddy test; format: in vivo, Oryza sativa; settings: Flood, 250 g ai/ha, 13 to 15 days; scale 0 to 100, 0 no effect, 100 complete control
# In short: (§2)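 Flooded 3 cm over soil; compound into paddy water; depth kept constant. Greenhouse 13–15 d.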
# [19] = test system: giant foxtail; test: Test G preemergence test; format: in vivo, Setaria faberii; settings: scale 0 to 100
# [20] = test system: sorghum; test: Test G preemergence test; format: in vivo, Sorghum vulgare; settings: scale 0 to 100
# [21] = test system: yellow foxtail; test: Test G preemergence test; format: in vivo, Pennisetum glaucum; settings: scale 0 to 100
# [22] = test system: field violet; test: Test D preemergence test; format: in vivo, Viola arvensis; settings: scale 0 to 100
# In short: as §1
# [23] = test system: littleseed canarygrass; test: Test D preemergence test; format: in vivo, Phalaris minor; settings: scale 0 to 100
# In short: as §1
# [24] = test system: umbrella sedge; test: Test B flooded paddy test; format: in vivo, Cyperus difformis; settings: Flood, 250 g ai/ha, 13 to 15 days; scale 0 to 100, 0 no effect, 100 complete control
# In short: as §2
# [25] = test system: fall panicum; test: Test G preemergence test; format: in vivo, Panicum dichotomiflorum; settings: scale 0 to 100
smiles,measurement,setting,value
Cn1nc(C(F)(F)F)c(CS(=O)(=O)c2ccc(Cl)c[n+]2[O-])c1OC(F)F [Compound 7],"Plant response rating, Oat, Wild",[1]; 31 g ai/ha,0
same,"Plant response rating, Oat, Wild",[1]; 62 g ai/ha,0
same,"Plant response rating, Oat, Wild",[1]; 125 g ai/ha,0
same,"Plant response rating, Oat, Wild",[1]; 250 g ai/ha,0
same,"Plant response rating, Signalgrass",[2]; 31 g ai/ha,15
same,"Plant response rating, Signalgrass",[2]; 62 g ai/ha,35
same,"Plant response rating, Signalgrass",[2]; 125 g ai/ha,90
same,"Plant response rating, Signalgrass",[2]; 250 g ai/ha,100
same,"Plant response rating, Bromegrass, Downy",[3]; 31 g ai/ha,0
same,"Plant response rating, Bromegrass, Downy",[3]; 62 g ai/ha,20
same,"Plant response rating, Bromegrass, Downy",[3]; 125 g ai/ha,25
same,"Plant response rating, Bromegrass, Downy",[3]; 250 g ai/ha,35
same,"Plant response rating, Barley","[4]; Preemergence, 62 g ai/ha, scale 0 to 100",0
same,"Plant response rating, Barley","[4]; Preemergence, 125 g ai/ha, scale 0 to 100",0
same,"Plant response rating, Barley","[4]; Preemergence, 31 g ai/ha, scale 0 to 100",0
same,"Plant response rating, Barley","[4]; preemergence, 250 g ai/ha, scale 0 (no effect) to 100 (complete control)",0
same,"Plant response rating, Nightshade",[5]; 31 g ai/ha,0
same,"Plant response rating, Nightshade",[5]; 62 g ai/ha,0
same,"Plant response rating, Nightshade",[5]; 125 g ai/ha,0
same,"Plant response rating, Nightshade",[5]; 250 g ai/ha,0
same,"Plant response rating, Cotton",[6]; 31 g ai/ha,0
same,"Plant response rating, Cotton",[6]; 62 g ai/ha,0
same,"Plant response rating, Cotton",[6]; 125 g ai/ha,0
same,"Plant response rating, Cotton",[6]; 250 g ai/ha,0
same,"Plant response rating, Wheat, Winter",[7]; 31 g ai/ha,0
same,"Plant response rating, Wheat, Winter",[7]; 62 g ai/ha,0
same,"Plant response rating, Wheat, Winter",[7]; 125 g ai/ha,0
same,"Plant response rating, Wheat, Winter",[7]; 250 g ai/ha,0
same,"Plant response rating, Wheat, Spring",[8]; 31 g ai/ha,0
same,"Plant response rating, Wheat, Spring",[8]; 62 g ai/ha,0
same,"Plant response rating, Wheat, Spring",[8]; 125 g ai/ha,0
same,"Plant response rating, Wheat, Spring",[8]; 250 g ai/ha,0
same,"Plant response rating, Itchgrass",[9]; 31 g ai/ha,0
same,"Plant response rating, Itchgrass",[9]; 62 g ai/ha,0
same,"Plant response rating, Itchgrass",[9]; 125 g ai/ha,25
same,"Plant response rating, Itchgrass",[9]; 250 g ai/ha,25
same,"Plant response rating, Ryegrass, Italian",[10]; 31 g ai/ha,0
same,"Plant response rating, Ryegrass, Italian",[10]; 62 g ai/ha,0
same,"Plant response rating, Ryegrass, Italian",[10]; 125 g ai/ha,0
same,"Plant response rating, Ryegrass, Italian",[10]; 250 g ai/ha,20
same,"Plant response rating, Foxtail, Millet",[11]; 31 g ai/ha,0
same,"Plant response rating, Foxtail, Millet",[11]; 62 g ai/ha,0
same,"Plant response rating, Foxtail, Millet",[11]; 125 g ai/ha,55
same,"Plant response rating, Foxtail, Millet",[11]; 250 g ai/ha,55
same,"Plant response rating, Crabgrass, Large",[12]; 31 g ai/ha,0
same,"Plant response rating, Crabgrass, Large",[12]; 62 g ai/ha,0
same,"Plant response rating, Crabgrass, Large",[12]; 125 g ai/ha,20
same,"Plant response rating, Crabgrass, Large",[12]; 250 g ai/ha,90
same,"Plant response rating, Millet",[13]; 31 g ai/ha,0
same,"Plant response rating, Millet",[13]; 62 g ai/ha,55
same,"Plant response rating, Millet",[13]; 125 g ai/ha,85
same,"Plant response rating, Millet",[13]; 250 g ai/ha,100
same,"Plant response rating, Bluegrass",[14]; 31 g ai/ha,0
same,"Plant response rating, Bluegrass",[14]; 62 g ai/ha,0
same,"Plant response rating, Bluegrass",[14]; 125 g ai/ha,65
same,"Plant response rating, Bluegrass",[14]; 250 g ai/ha,95
same,"Plant response rating, Cupgrass, Woolly",[15]; 31 g ai/ha,0
same,"Plant response rating, Cupgrass, Woolly",[15]; 62 g ai/ha,60
same,"Plant response rating, Cupgrass, Woolly",[15]; 125 g ai/ha,75
same,"Plant response rating, Cupgrass, Woolly",[15]; 250 g ai/ha,80
same,"Plant response rating, Goosegrass",[16]; 31 g ai/ha,50
same,"Plant response rating, Goosegrass",[16]; 62 g ai/ha,90
same,"Plant response rating, Goosegrass",[16]; 125 g ai/ha,100
same,"Plant response rating, Goosegrass",[16]; 250 g ai/ha,100
same,"Plant response rating, Nutsedge, Yellow",[17]; 31 g ai/ha,0
same,"Plant response rating, Nutsedge, Yellow",[17]; 62 g ai/ha,0
same,"Plant response rating, Nutsedge, Yellow",[17]; 125 g ai/ha,0
same,"Plant response rating, Nutsedge, Yellow",[17]; 250 g ai/ha,0
same,"Plant response rating, Rice, Transplanted",[18],70
same,"Plant response rating, Foxtail, Giant",[19]; 31 g ai/ha,0
same,"Plant response rating, Foxtail, Giant",[19]; 62 g ai/ha,20
same,"Plant response rating, Foxtail, Giant",[19]; 125 g ai/ha,25
same,"Plant response rating, Foxtail, Giant",[19]; 250 g ai/ha,55
same,"Plant response rating, Sorghum",[20]; 31 g ai/ha,0
same,"Plant response rating, Sorghum",[20]; 62 g ai/ha,0
same,"Plant response rating, Sorghum",[20]; 125 g ai/ha,0
same,"Plant response rating, Sorghum",[20]; 250 g ai/ha,20
same,"Plant response rating, Foxtail, Yellow",[21]; 31 g ai/ha,0
same,"Plant response rating, Foxtail, Yellow",[21]; 62 g ai/ha,50
same,"Plant response rating, Foxtail, Yellow",[21]; 125 g ai/ha,95
same,"Plant response rating, Foxtail, Yellow",[21]; 250 g ai/ha,100
same,"Plant response rating, Field Violet",[22]; 31 g ai/ha,0
same,"Plant response rating, Field Violet",[22]; 62 g ai/ha,0
same,"Plant response rating, Field Violet",[22]; 125 g ai/ha,0
same,"Plant response rating, Field Violet",[22]; 250 g ai/ha,30
same,"Plant response rating, Canarygrass",[23]; 31 g ai/ha,0
same,"Plant response rating, Canarygrass",[23]; 62 g ai/ha,0
same,"Plant response rating, Canarygrass",[23]; 125 g ai/ha,20
same,"Plant response rating, Canarygrass",[23]; 250 g ai/ha,100
same,"Plant response rating, Umbrella Sedge",[24],90
same,"Plant response rating, Fall Panicum",[25]; 31 g ai/ha,0
same,"Plant response rating, Fall Panicum",[25]; 62 g ai/ha,80
same,"Plant response rating, Fall Panicum",[25]; 125 g ai/ha,90
same,"Plant response rating, Fall Panicum",[25]; 250 g ai/ha,100
